Five molecules from ChEMBL document CHEMBL2074247, “Induction of P-glycoprotein expression by HIV protease inhibitors in cell culture” (AIDS, 2000) can be followed below.

The target in the data set is ATP-dependent translocase ABCB1 (Homo sapiens, UniProt P08183). Nature of the data set: TP_TRANSPORTER: Western blot, LS-180V. The format is functional, cell-based.
Sequence of ATP-dependent translocase ABCB1 (P08183 whole entry): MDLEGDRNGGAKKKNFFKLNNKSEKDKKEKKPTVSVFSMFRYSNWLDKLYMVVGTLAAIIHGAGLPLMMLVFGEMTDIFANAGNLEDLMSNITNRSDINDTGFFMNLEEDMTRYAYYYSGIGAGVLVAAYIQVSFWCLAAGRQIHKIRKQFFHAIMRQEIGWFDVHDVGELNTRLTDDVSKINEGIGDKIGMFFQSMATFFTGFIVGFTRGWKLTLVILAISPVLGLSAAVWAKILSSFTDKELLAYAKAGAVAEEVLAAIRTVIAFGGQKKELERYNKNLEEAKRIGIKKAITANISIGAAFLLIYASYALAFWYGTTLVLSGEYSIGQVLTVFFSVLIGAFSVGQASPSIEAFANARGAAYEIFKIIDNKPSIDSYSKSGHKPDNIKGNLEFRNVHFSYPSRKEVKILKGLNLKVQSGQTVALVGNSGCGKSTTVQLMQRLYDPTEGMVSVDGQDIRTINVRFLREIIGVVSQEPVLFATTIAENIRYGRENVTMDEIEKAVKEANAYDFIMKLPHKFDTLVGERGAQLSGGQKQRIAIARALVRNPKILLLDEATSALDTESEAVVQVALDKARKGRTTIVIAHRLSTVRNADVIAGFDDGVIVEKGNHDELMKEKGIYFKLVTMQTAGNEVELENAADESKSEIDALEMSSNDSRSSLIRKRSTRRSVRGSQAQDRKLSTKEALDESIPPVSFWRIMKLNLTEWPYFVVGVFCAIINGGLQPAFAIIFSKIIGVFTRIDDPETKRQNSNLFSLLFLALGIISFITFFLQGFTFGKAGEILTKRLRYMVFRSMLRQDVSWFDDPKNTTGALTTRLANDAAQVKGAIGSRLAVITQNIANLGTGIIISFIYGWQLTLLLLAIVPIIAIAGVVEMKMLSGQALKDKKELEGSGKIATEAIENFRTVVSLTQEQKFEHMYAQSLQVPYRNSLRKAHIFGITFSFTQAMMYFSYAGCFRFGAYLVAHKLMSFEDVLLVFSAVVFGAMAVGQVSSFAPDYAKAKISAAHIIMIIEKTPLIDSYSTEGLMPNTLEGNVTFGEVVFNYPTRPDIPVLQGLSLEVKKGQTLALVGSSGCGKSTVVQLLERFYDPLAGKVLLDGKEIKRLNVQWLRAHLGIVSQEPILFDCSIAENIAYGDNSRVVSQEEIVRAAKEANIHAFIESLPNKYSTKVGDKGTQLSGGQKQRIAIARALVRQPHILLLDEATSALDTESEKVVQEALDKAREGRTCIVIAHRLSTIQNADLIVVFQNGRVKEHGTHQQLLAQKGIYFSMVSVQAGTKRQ

In the case of `CC(C)CN(C[C@@H](O)[C@H](Cc1ccccc1)NC(=O)O[C@H]1CCOC1)S(=O)(=O)c1ccc(N)cc1` [AMPRENAVIR], the Activity entry is “inducer [+]”.
Under `CC(C)(C)NC(=O)[C@@H]1CN(Cc2cccnc2)CCN1C[C@@H](O)C[C@@H](Cc1ccccc1)C(=O)N[C@H]1c2ccccc2C[C@H]1O.O` [INDINAVIR] stands “inducer [+]”; under `Cc1c(O)cccc1C(=O)N[C@@H](CSc1ccccc1)[C@H](O)CN1C[C@H]2CCCC[C@H]2C[C@H]1C(=O)NC(C)(C)C` [NELFINAVIR], “inducer [+]”.
To `CC(C)(C)NC(=O)[C@@H]1C[C@@H]2CCCC[C@@H]2CN1C[C@@H](O)[C@H](Cc1ccccc1)NC(=O)[C@H](CC(N)=O)NC(=O)c1ccc2ccccc2n1` [SAQUINAVIR] belongs “inducer [+]”; to `COc1ccc(CCN(C)CCCC(C#N)(c2ccc(OC)c(OC)c2)C(C)C)cc1OC` (stereo not given) [VERAPAMIL], “inducer [+]”.
